Four compounds from patent publication EP4800015A1, “AZABICYCLO DERIVATIVE AND PREPARATION METHOD THEREFOR, AND USE” (Zhejiang Hisun Pharmaceutical Co., Ltd., priority 2023, dated 2025) can be followed below.

Molecules are shown by their SMILES.

One data set deals with T1, recombinant human WRN (Homo sapiens, UniProt Q14191).
T1 construct: purchased BPS 101264
The data set can be described thus: Inhibition of WRN enzyme activity (ATPase), ADP-Glo Kinase Assay. The data set is classed as biochemical. The settings on record: WRN protein 5 nM, Flap 0.1 nM, ATP 30 µM; read-out: IC50. In a few lines:
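Recombinant human WRN (5 nM) was preincubated with compound (1000–0.004 nM) for 15 min at room temperature. Flap26 5'-flap DNA (0.1 nM) and 30 µM ATP were then added for 10 min in Tris pH 7.5, MgCl2, NaCl, BSA, Pluronic buffer. ADP was detected by ADP-Glo luminescence, and IC50 was obtained by nonlinear regression versus a 0.1% DMSO control.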
(ADP-Glo first removes unused ATP, then detects ADP through luciferase.)

Data set [1] in a line: Metabolic stability in dog liver microsomes. The settings on record: dog liver microsomes 0.5 mg mL^-1, NADPH 1 mM, 0-60 min; read-out: Liver microsomal stability t1/2 (min) Dog. The data set is classed as in vitro ADME. Here is the method:
(§1) The purpose of this study was to investigate the metabolic stability of the compounds of the present disclosure in human and dog liver microsomes.
(§2) The compounds were co-incubated with human (or dog) liver microsomes, and the reaction was initiated by adding coenzyme NADPH (1 mM). At 0, 5, 15, 30, and 60 minutes, 60 µL of incubation solution was removed, and 180 µL of acetonitrile containing internal standard (clopidogrel) was added to quench the reaction, the mixture was shaken for 10 seconds, centrifuged at 10000 rpm for 10 minutes, and the supernatant was taken for analysis by LC-MS/MS. The in vitro intrinsic clearance was calculated based on the elimination half-life of the test compound in the incubation system. Midazolam was used as an internal reference compound, with two parallel incubations for each. Incubation conditions are summarized in Table 6 below: Table 6 Incubation conditions for the example compounds of the present disclosure
(§3) The ratio of the peak area of analyte to internal standard (Aanalyte/AIS) was obtained from the instrument, and the remaining percentage (%Control) was calculated from the ratio of Aanalyte/AIS in non-zero time point samples to zero time samples. Ln (%Control) was plotted against incubation time and linearly fitted. The test compound clearance constant (k, min^-1) and clearance half-life (T1/2, min) were calculated using the following equations. k = −slope [formula] T1/2 = 0.693/k. [formula]
(In general: Microsomes from liver hold many membrane-bound enzymes, among them those of drug oxidation.)

A further data set deals with RL95-2 cells. Description: Inhibition of RL95-2 cell proliferation (CellTiter-Glo). The settings on record: Homo sapiens; RL95-2 cells (MSI-H), 120 hours. The data set is classed as cell-based. In a few lines: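 RL95-2 (MSI-H) cells, 500/well in DMEM/F12 with 10% FBS, adhered overnight, then treated 120 h at 37 °C, 5% CO2 with compound at final 1.52-10000 nM. Viability by CellTiter-Glo luminescence. Inhibition relative to 0.1% DMSO control; IC50 from nonlinear regression of log concentration versus inhibition.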

Data set [2] is described as follows: Metabolic stability in human liver microsomes. The data set is classed as in vitro ADME. The settings on record: human liver microsomes 0.5 mg mL^-1, NADPH 1 mM, 0-60 min; read-out: Liver microsomal stability t1/2 (min) Human. As for the experimental part:
as §1, §2, §3

A short description of data set [3]: Pharmacokinetic test in mice after intragastric administration. The settings on record: male, mouse, plasma, ICR mice, Oral (10 mg/kg); for AUC(0-t): read-out: Area under curve AUC0-t; for half-life: read-out: Half-life T1/2 (converted); for Cmax: read-out: Plasma concentration Cmax. The data set is classed as in vivo. As for the experimental part: ICR mice were used as test animals, the plasma concentrations of the control compound HRO761 and the compounds of the present disclosure at different time points after intragastric administration were determined by LC/MS/MS method, and the pharmacokinetic characteristics of the compounds of the present disclosure in mice were studied.
ICR mice, male, 30.8 to 38.0 g, purchased from Vital River Laboratory Animal Technology Co., Ltd.
An appropriate amount of the test compound was weighed, and an appropriate amount of DMA (N,N-dimethylacetamide), 30% Solutol HS15 (30% polyethylene glycol-15 hydroxystearate), and Saline (saline) were added sequentially, the mixture was ultrasonicated and vortex mixed to prepare a 1 mg/mL dosing formulation. The ratio of DMA:30% Solutol HS15:Saline was 5:5:90 (v/v/v).
After overnight fasting, ICR mice in each test compound injection group (9 mice per group) were administered intragastrically (PO, compound dose was 10 mg/kg, administration volume was 10 mL/kg), and food was given 4 hours after administration.
About 0.1 mL of blood was collected via the orbital cavity before administration and at 0.25 h, 0.5 h, 1 h, 2 h, 4 h, 8 h, 10 h, and 24 h after administration, and whole blood samples were placed in anticoagulant tubes containing EDTA-K2. The samples were placed on ice after collection, and plasma was separated by centrifugation (centrifugation conditions: 1500 g, 10 minutes). The collected plasma was stored at -40 to -20 °C before analysis.
The content of the test compound in mouse plasma after intragastric administration was determined by LC-MS/MS.

Data set [4] concerns Caco-2 monolayer cell model. Description: Caco-2 bidirectional permeability and efflux ratio. In kind it is in vitro ADME. Conditions: Caco-2, conclusion. As for the experimental part: (§4) The bidirectional permeability and efflux ratio of the example compounds and control compound were determined in a Caco-2 monolayer cell model.
(§5) Caco-2 cells (cultured at Shanghai Medicilon Inc.) were recovered in the experiment. After the cells were in good condition, they were digested, and the cell density was adjusted (1 × 10^5 cells/cm^2). Caco-2 cells were seeded into Transwell chambers and placed in 24-well plates for cultivation. After continuous cultivation for about 21 days, TEER values were measured one day before the experiment to ensure formation of a confluent cell monolayer for transport experiments (TEER > 200 Ω·cm^2). Test compounds were diluted from 10 mM stock solutions to 10 µM concentration using transport buffer (HBSS containing BSA) (metoprolol and atenolol were set as positive compounds). For efflux determination, 0.6 mL of compound dilution solution was added to the outer well (side B), and 0.4 mL of blank transport buffer was added to the Transwell chamber. For absorption determination, 0.4 mL of transport buffer containing compound was added to the Transwell chamber, and 0.6 mL of blank transport buffer was added to the outer side. After setup, the 24-well plates were cultivated at 37 °C and 5% CO2 with 95% relative humidity for 120 minutes, and permeability of test compounds from A to B direction or B to A direction was measured, respectively, with two duplicate wells set for each direction. Liquid in Transwell chambers and 24-well plates was collected separately, 60 µL each, and 180 µL of acetonitrile (containing internal standard) was added, vortexed for 1 min, then centrifuged at 4 °C, 10000 rpm for 10 min. The supernatant was taken, filtered through a 0.22 µm membrane, and placed in vials for testing. The content of the compounds in each Transwell chamber and 24-well plate was determined by liquid chromatography-tandem mass spectrometry (LC-MS/MS). Table 4 Permeability data of compounds of the present disclosure

Data set [5] is described as follows: Caco-2 bidirectional permeability and efflux ratio. The data set is classed as in vitro ADME. The settings on record: human, Caco-2, 10 µM, 120 minutes. As for the experimental part: as §4, §5
(Caco-2 cells form a polarised layer with tight junctions and transporters.)

A further data set has as its system SW48 cells. The data set can be described thus: Inhibition of SW48 cell proliferation (CellTiter-Glo). Conditions: Homo sapiens; SW48 cells (MSI-H), 120 hours. The data set is classed as cell-based. In a few lines: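 SW48 (MSI-H) cells in L-15 with 10% FBS were seeded at 500 per well, cultured overnight at 37 °C, then exposed to compound at final concentrations of 10000 nM to 1.52 nM for 120 h. Viability was read by CellTiter-Glo luminescence, with inhibition relative to 0.1% DMSO. IC50 from nonlinear regression of log concentration versus inhibition.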

T1 sequence (Q14191 whole entry): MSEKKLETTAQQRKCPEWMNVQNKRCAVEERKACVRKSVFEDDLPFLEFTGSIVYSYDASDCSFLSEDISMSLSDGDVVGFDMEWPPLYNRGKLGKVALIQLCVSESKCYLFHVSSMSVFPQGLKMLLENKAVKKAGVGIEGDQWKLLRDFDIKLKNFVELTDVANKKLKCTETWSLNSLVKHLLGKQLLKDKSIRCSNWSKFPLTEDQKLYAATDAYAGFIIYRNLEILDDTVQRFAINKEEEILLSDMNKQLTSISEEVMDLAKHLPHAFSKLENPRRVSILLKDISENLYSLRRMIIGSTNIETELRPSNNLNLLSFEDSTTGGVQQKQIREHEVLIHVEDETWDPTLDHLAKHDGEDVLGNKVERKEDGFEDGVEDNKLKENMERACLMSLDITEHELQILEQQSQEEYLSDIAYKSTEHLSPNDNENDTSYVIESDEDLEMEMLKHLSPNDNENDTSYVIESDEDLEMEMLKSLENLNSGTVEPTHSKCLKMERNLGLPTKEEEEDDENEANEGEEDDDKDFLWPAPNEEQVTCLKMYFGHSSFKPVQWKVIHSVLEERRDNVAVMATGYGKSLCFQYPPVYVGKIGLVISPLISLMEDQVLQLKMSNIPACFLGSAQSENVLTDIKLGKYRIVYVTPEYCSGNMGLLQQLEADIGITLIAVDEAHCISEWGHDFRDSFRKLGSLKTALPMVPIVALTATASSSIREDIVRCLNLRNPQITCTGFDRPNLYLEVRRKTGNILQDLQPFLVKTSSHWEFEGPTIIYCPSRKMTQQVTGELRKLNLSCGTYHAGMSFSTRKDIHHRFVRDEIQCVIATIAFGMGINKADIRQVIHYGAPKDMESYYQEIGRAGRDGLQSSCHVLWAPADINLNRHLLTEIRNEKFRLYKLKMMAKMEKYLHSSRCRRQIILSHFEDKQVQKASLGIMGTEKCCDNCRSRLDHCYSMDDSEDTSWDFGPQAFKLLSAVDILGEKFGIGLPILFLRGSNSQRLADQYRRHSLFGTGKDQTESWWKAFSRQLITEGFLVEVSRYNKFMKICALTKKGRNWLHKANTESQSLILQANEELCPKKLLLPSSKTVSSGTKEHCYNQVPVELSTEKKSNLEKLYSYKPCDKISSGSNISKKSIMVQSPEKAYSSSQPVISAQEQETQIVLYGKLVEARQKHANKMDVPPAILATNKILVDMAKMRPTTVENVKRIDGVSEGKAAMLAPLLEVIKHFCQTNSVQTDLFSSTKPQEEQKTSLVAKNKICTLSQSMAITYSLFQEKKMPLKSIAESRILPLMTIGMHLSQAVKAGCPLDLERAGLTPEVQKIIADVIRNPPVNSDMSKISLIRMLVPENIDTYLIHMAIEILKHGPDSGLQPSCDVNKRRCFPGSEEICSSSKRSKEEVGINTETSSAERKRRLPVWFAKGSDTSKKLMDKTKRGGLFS

Turning to `CCc1c(N2CCN(C(=O)c3ncnc(C)c3O)CC2)c(=O)n2nc(-c3ccc4c(c3)CCO4)nc2n1CC(=O)Nc1ccc(C(F)(F)F)cc1Cl` [Example 76, N-(2-chloro-4-(trifluoromethyl)phenyl)-2-(2-(2,3-dihydrobenzofuran-5-yl)-5-ethyl-6-(4-(5-hydroxy-6-methylpyrimidine-4-carbonyl)piperazin-1-yl)-7-oxo-[1,2,4]triazolo[1,5-a]pyrimidin-4(7H)-yl)acetamide], the IC50 on recombinant human WRN and in the data set with RL95-2 cells was 1 to 100 nM throughout. The values for the half-life in data set [1] and in data set [2] were 200 min and 999 min, respectively.

`CCc1c(N2CCN(C(=O)c3ncnc(C)c3O)CC2)c(=O)n2nc(C3=CCOCC3)nc2n1CC(=O)Nc1ccc(C(F)(F)F)cc1Cl` [HRO761, reference compound]: in data set [3], the AUC(0-t) was 15600 ng·h/mL, the half-life is 2.81 h and the Cmax stood at 7010 ng/mL. In data set [4], the “efflux (in words)” value is “apparent potential efflux properties” and the “permeability (in words)” value is reported as “moderate permeability”. In data set [5] (read-out: Efflux ratio Papp(B-A)/ Papp(A-B)), the efflux ratio at 120 min, 10 µM was 3.65. In addition, in data set [5] (A to B), the Papp A→B at 120 min, 10 µM worked out at 3.96 ×10⁻⁶ cm/s. The Papp B→A at 120 min, 10 µM in data set [5] (B to A) was found to be 14.5 ×10⁻⁶ cm/s. The half-life in data set [1] was 175 min. In addition, the half-life in data set [2] turned out to be 483 min.

On to `CCc1c(N2CCN(C(=O)c3ncnc(C)c3O)CC2)c(=O)n2nc(-c3ccc4ncsc4c3)nc2n1CC(=O)Nc1ccc(C(F)(F)F)cc1Cl` [Example 125, 2-(2-(benzo[d]thiazol-6-yl)-5-ethyl-6-(4-(5-hydroxy-6-methylpyrimidine-4-carbonyl)piperazin-1-yl)-7-oxo-[1,2,4]triazolo[1,5-a]pyrimidin-4(7H)-yl)-N-(2-chloro-4-(trifluoromethyl)phenyl)acetamide], for which the figures for the IC50 in the data set on SW48 cells, at recombinant human WRN and in the data set with RL95-2 cells were 1 to 100 nM, under 1 nM and 1 to 100 nM, respectively. The half-life in data set [1] worked out at 182 min; in data set [2] it was 705 min.

As for `CCc1c(N2CCN(C(=O)c3ncnc(C)c3O)CC2)c(=O)n2nc(-c3ccc4occc4c3)nc2n1CC(=O)Nc1ccc(C(F)(F)F)cc1Cl` [Example 67, 2-(2-(benzofuran-5-yl)-5-ethyl-6-(4-(5-hydroxy-6-methylpyrimidine-4-carbonyl)piperazin-1-yl)-7-oxo-[1,2,4]triazolo[1,5-a]pyrimidin-4(7H)-yl)-N-(2-chloro-4-(trifluoromethyl)phenyl)acetamide], the AUC(0-t) in data set [3] stood at 83400 ng·h/mL. Also, the figures for the half-life in data set [3], in data set [1] and in data set [2] were 0.66 h, 318 min and 657 min, respectively. The Cmax in data set [3] worked out at 31400 ng/mL. The IC50 was under 1 nM at recombinant human WRN and 1 to 100 nM with RL95-2 cells.

Usually IC50 stands for the point on the concentration scale where inhibition reaches its midpoint. For orientation: Papp A→B means how fast a substance crosses the layer from the apical side. What is called Papp B→A is how fast a substance crosses the layer from the basolateral side.
